Measured values from patent publication US20130143840A1, “HEPARAN SULFATE REPLACEMENT THERAPY” (priority 2010, published 2013).
Entries after “also recorded” stand apart in the source; their conditions may differ.

Assays:
isolated islets = test: Heparan sulfate of islets isolated with free radical scavengers, Alcian blue staining; set-up: species or system mouse; details: combined: donors pretreated with BHA 120 mg/kg i.p. and islets isolated in presence of DMTU 50 mM
Description: Transplantation of pancreatic islets is a well established therapeutic approach for treating Type I diabetes in animals and patients. However, recovery of fully functional islets is crucial if successful transplantation is to occur, irrespective of the problems associated with the recipient's immune response against the allograft. Based on the data described herein, preservation of intra-islet heparan sulfate during islet isolation is an important factor in ensuring that normal islet function is retained. […] In fact, following isotransplantation intra-islet heparan sulfate was still depleted 3 days after transplantation but returned to normal levels 7 days post-transplant (FIG. 13). […] These observations indicate that a combination of heparan sulfate and free radical scavengers could be used to preserve beta cell heparan sulfate during islet isolation.

islet beta cells [1] = test: Hydrogen peroxide (ROS)-induced beta cell death after culture, Sytox green uptake; assay type: cell-based, mouse; details: for Resistance to H2O2 (ROS): then 30% H2O2 for 5 min; for ability to retain beta cell viability and induce ROS resistance (in words): summary of Table 3
heparanase = molecular target: T1, heparanase (Homo sapiens, UniProt Q9Y251); test: Heparanase inhibitory activity (Freeman and Parish 1997 assay); assay type: biochemical
T1 sequence (Q9Y251 158-543 limits assumed): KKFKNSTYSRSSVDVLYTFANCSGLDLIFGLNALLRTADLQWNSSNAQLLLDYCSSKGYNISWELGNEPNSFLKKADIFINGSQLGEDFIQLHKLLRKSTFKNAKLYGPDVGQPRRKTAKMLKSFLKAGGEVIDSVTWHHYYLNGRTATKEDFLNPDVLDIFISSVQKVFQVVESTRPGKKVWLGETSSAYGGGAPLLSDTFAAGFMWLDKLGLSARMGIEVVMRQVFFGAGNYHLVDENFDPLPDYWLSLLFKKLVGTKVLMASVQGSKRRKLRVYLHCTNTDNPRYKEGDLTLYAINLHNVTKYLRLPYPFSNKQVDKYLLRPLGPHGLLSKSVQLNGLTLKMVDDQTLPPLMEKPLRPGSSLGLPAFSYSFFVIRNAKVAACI
T1 sequence (Q9Y251 36-109 limits assumed): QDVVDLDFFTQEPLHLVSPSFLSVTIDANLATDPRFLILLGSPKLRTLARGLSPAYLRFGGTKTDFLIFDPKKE

[2] = test system: isolated BALB/c islet beta cells; test: Culture-induced death of isolated islet beta cells, Sytox green uptake by flow cytometry; assay type: cell-based, mouse; details: for Viability (%): untreated control 25-30% viability
Description: (§1) Pancreatic islets were isolated from non-diabetic BALB/c mice and dissociated into a single cell suspension (>90% beta cells) by Dispase digestion. Following 2 days culture in standard tissue culture medium 62% of the beta cells were dead, based on uptake of the fluorescent DNA binding dye, Sytox green (FIG. 4, upper panels). […] In the presence of heparin the highly viable Calcein^+, PI^−population of beta cells was increased from 25% to 86%, the dead population. (Calcein^−, PI^+) reduced from 18% to 1% and the apoptotic population (Calcein^+, PI^+) improved from 52% to 6%. […] Table 1 provides a statistical analysis of the data showing that heparin, highly sulfated heparan sulfate (HS^hi) and PI-88 can protect mouse beta cells from culture-induced cell death.
(§2) The impact of heparin treatment on beta cell viability was also independent of the source of heparin (FIG. 8a) and, based on viable cell numbers, was not observed after 1 h but did occur after continuous culture with heparin for 1-2 days (FIG. 8b).

[3] = test system: isolated BALB/c islet beta cells; test: Beta cell viability by Calcein-AM / propidium iodide staining, flow cytometry; assay type: cell-based, mouse; details: 50 μg/ml, 2 days culture
Description: as §1

islet beta cells [4] = test: Insulin content of beta cells from islets isolated in the presence of heparin, flow cytometry; assay type: cell-based, mouse; details: heparin 50 μg/ml in the islet isolation medium
Procedure: This deficiency in intra-islet heparan sulfate persisted for at least 3 days after transplantation of the islets into histocompatible recipients, normal heparan sulfate levels only being regained 7 days post-transplantation (FIG. 13). Inclusion of heparin (50 μg/ml) in the islet isolation medium improved the insulin content of the islet beta cells 2-fold (FIG. 14).

islet beta cells [5] = test: Intracellular insulin content of cultured beta cells; assay type: cell-based, mouse; details: 50 μg/ml, 2 days culture
Procedure: Comparison of the ability of HS^hi (50 μg/ml) and undersulfated HS(HS^lo, 50 μg/ml) to protect beta cells from 2 day culture-induced cell death, as shown by Sytox green uptake (upper panels). Lower panels depict the intracellular insulin content (green histograms) of the different preparations of cultured islet cells. Serum control (red histograms) and islet cell autofluorescence (black histograms) are also shown. 85-88% of the cultured islet cells were insulin^+ beta cells.
as §2

[6] = 50 μg/ml, 2 days culture, Sytox green

Row | Molecule | Resistance to H2O2 (ROS) (islet beta cells [1]; 50 μg/ml, 2 days culture) | Viability (%) [2, 6] [%] | Hpse inhibition (heparanase) | further results
1 | COc1ccc(O)c(C(C)(C)C)c1 [BHA, butylated hydroxyanisole] |  |  |  | Alcian blue staining for heparan sulfate of isolated islets (in words) (isolated islets): increased
2 | CNC(=S)NC [DMTU, dimethylthiourea] |  |  |  | Alcian blue staining for heparan sulfate of isolated islets (in words) (isolated islets): increased
3 | Bis-lactobionic acid amide (C12 link) | − |  |  | protection from peroxide (ROS)-induced cell death / induction of ROS resistance (in words) (islet beta cells [1]; 50 μg/ml, 2 days culture): essentially unable to induce islet beta cells to become ROS resistance; heparanase inhibition (in words) (heparanase): strong to very strong heparanase inhibitors
4 | Chitosan | − | 30 | − | 
5 | Chondroitin sulfate A | − | 50 | ± | 
6 | Chondroitin sulfate B | − | 46 | − | 
7 | Chondroitin sulfate C | − | 32 | − | 
8 | Chondroitin sulfate D | − | 32 | ± | 
9 | Dextran sulfate | ++++ |  | ++ | ability to retain beta cell viability and induce ROS resistance (in words) (islet beta cells [1]; 50 μg/ml, 2 days culture): induced high beta cell viability and ROS resistance
10 | Heparin |  |  |  | beta cell survival at 5 μg/ml (in words) ([2]; 5 μg/ml, 2 days culture): equally active; also recorded: preserved beta cell survival; protection from culture-induced cell death / beta cell survival (in words) [2, 6]: dramatically enhanced; % dead beta cells in culture (Sytox green) ([2]; heparin 50 μg/ml co-culture, controls 72.5% dead): 5.3%; dead population (Calcein−, PI+) ([3]; control 18%): 1%; Calcein+, PI− population of beta cells (highly viable) ([3]; control 25%): 86%; apoptotic population (Calcein+, PI+) ([3]; control 52%): 6%; % beta cells Calceln − PI− (cell debris) ([3]; n = 3-5/group): 9.75 ± 1.9%; % viable after hydrogen peroxide treatment (islet beta cells [1]; 2 days culture with 50 μg/ml): 95%; % cell death following hydrogen peroxide treatment (islet beta cells [1]; heparin 50 μg/ml co-culture, freshly isolated cells 96.1% cell death): 5.0%; insulin content of islet beta cells, increase over control (islet beta cells [4]): 2 fold; change in the insulin content of cultured beta cells (in words) (islet beta cells [5]): little or no change
11 | Maltopentaose sulfate | ++++ |  | +++ | ability to retain beta cell viability and induce ROS resistance (in words) (islet beta cells [1]; 50 μg/ml, 2 days culture): induced high beta cell viability and ROS resistance
12 | O-α-D-Glucopyranosyl-{(1→4)—O-α-D-glucopyranosyl}4-(1→4)-D-glucopyranose sulfate [Maltohexaose sulfate] | ++++ |  | +++ | ability to retain beta cell viability and induce ROS resistance (in words) (islet beta cells [1]; 50 μg/ml, 2 days culture): induced high beta cell viability and ROS resistance
